# Test results: ChEMBL document CHEMBL4665709, “Rational Avoidance of Protease Cleavage Sites and Symmetrical End-Tagging Significantly Enhances the Stability and Therapeutic Potential of Antimicrobial Peptides” (J Med Chem, 2020)
# Active and inactive are the calls of the source. The rule behind the calls is not given here. Where a SMILES comes first, the peptide text is derived from it.
# Legend:
# RAW264.7 = assay: Antiinflammatory activity in mouse RAW264.7 cells assessed as inhibition of LPS-induced IL-6 production after 24 hrs by ELISA; format: functional, cell-based
# Escherichia coli [1] = assay: Antibacterial activity against Escherichia coli ATCC 25922 infected in C57BL/6 mouse assessed as reduction in bacterial load in lung at 10 mg/kg, ip measured after 11 hrs (reference value: 6.48 log CFU/g); format: functional
# [2] = Toxicity in C57BL/6 mouse assessed as effect on total bilirubin level at 10 mg/kg, ip measured after 5 days; format: organism-based; conditions: in vivo, 120 h, time 5 day
# Escherichia coli [3] = assay: Antibacterial activity against Escherichia coli ATCC 25922 after 18 to 24 hrs in presence of 150 mM Na+ by CLSI-based broth microdilution method; format: functional; conditions: time hrs 18-24
# Cell membrane [4] = assay: Disruption of membrane integrity in Escherichia coli ATCC 25922 assessed as induction of membrane rupture after 1 hr by PI-staining based flow cytometry analysis; format: subcellular
# Escherichia coli [5] = assay: Antibacterial activity against Escherichia coli ATCC 25922 infected in C57BL/6 mouse reduction in inflammatory cell infiltration in liver at 10 mg/kg, ip measured after 11 hrs by hematoxylin and eosin staining based assay; format: functional, organism-based
# Escherichia coli [6] = assay: Antibacterial activity against Escherichia coli ATCC 25922 after 18 to 24 hrs in presence of 4.5 mM K+ by CLSI-based broth microdilution method; format: functional; conditions: time hrs 18-24
# [7] = Toxicity in C57BL/6 mouse assessed as change in body weigh at 10 mg/kg, ip measured for 5 days; format: organism-based; conditions: in vivo, 120 h, time 5 day
# Cell membrane [8] = assay: Induction of cytoplasmic membrane depolarization in Staphylococcus aureus ATCC 29213 at 0.5 to 2 times MIC up to 1000 secs by DiSC3-5 dye-based fluorescence assay; format: subcellular; conditions: time sec <=1000
# Cell membrane [9] = assay: Induction of morpholoical changes in membrane of Escherichia coli ATCC 25922 assessed as fragmentation in bacterial membrane at 1 times MIC after 1 hr by scanning electron microscopy; format: subcellular
# Escherichia coli [10] = assay: Antibacterial activity against Escherichia coli ATCC 25922 after 18 to 24 hrs in presence of 6 uM NH4+ by CLSI-based broth microdilution method; format: functional; conditions: time hrs 18-24
# [11] = Therapeutic index, ratio of MHC for human RBC to geometric mean of peptide MIC for Salmonella pullorum 7913; format: toxicity; conditions: human red blood cells (RBC), read-out: TI
# [12] = tested on: Staphylococcus epidermidis; assay: Antibacterial activity against Staphylococcus epidermidis ATCC 12228 after 18 to 24 hrs by CLSI-based broth microdilution method; format: functional; conditions: time hrs 18-24
# Cell membrane [13] = assay: Disruption of membrane integrity in Staphylococcus aureus ATCC 29213 assessed as induction of membrane rupture at 0.5 to 2 times after 1 hr by PI-staining based fluorescence microscopy; format: subcellular
# Cell membrane [14] = assay: Disruption of membrane integrity in Staphylococcus aureus ATCC 29213 assessed as induction of membrane rupture after 1 hr by PI-staining based flow cytometry analysis
# [15] = Stability of compound assessed as pepsin (unknown origin)-mediated drug degradation after 8 hrs by RP-HPLC analysis; format: ADME; conditions: human
# Erythrocyte = assay: Hemolytic activity in human RBC assessed as hemolysis; format: ADME, cell-based
# Escherichia coli [16] = assay: Antibacterial activity against Escherichia coli ATCC 25922 infected in C57BL/6 mouse assessed as reduction in TNF-alpha level in serum at 10 mg/kg, ip measured after 11 hrs by ELISA; format: functional, organism-based
# Staphylococcus aureus [17] = assay: Antibacterial activity against Staphylococcus aureus ATCC 29213 after 18 to 24 hrs in presence of 6 uM Fe3+ by CLSI-based broth microdilution method; format: functional; conditions: time hrs 18-24
# [18] = Therapeutic index, ratio of MHC for human RBC to geometric mean of peptide MIC for Streptococcus agalactiae H92; format: toxicity; conditions: human red blood cells (RBC), read-out: TI
# Cell membrane [19] = assay: Induction of structural changes in membrane of Staphylococcus aureus ATCC 29213 assessed as cytoplasmic leakage at 1 times MIC after 1 hr by transmission electron microscopy
# [20] = Therapeutic index, ratio of MHC for human RBC to geometric mean of peptide MIC for methicillin-resistant Staphylococcus aureus 43300; format: toxicity; conditions: human red blood cells (RBC), read-out: TI
# Escherichia coli [21] = assay: Antibacterial activity against Escherichia coli ATCC 25922 measured after 18 to 24 hrs in presence of pepsin by CLSI-based broth microdilution method; format: functional, organism-based; conditions: time hrs 18-24
# Escherichia coli [22] = assay: Antibacterial activity against Escherichia coli ATCC 25922 infected in C57BL/6 mouse assessed as reduction in lesion in kidney at 10 mg/kg, ip measured after 11 hrs by hematoxylin and eosin staining based assay; format: functional, organism-based
# Cell membrane [23] = assay: Induction of structural changes in membrane of Escherichia coli ATCC 25922 assessed as outer membrane separation at 1 times MIC after 1 hr by transmission electron microscopy; format: subcellular
# Cell membrane [24] = assay: Induction of morpholoical changes in membrane of Staphylococcus aureus ATCC 29213 assessed as fragmentation in bacterial membrane at 1 times MIC after 1 hr by scanning electron microscopy; format: subcellular
# [25] = Toxicity in C57BL/6 mouse assessed as effect on aspartate aminotransferase level at 10 mg/kg, ip measured after 5 days; format: organism-based; conditions: in vivo, 120 h, time 5 day
# Cell membrane [26] = assay: Induction of cytoplasmic membrane depolarization in Escherichia coli ATCC 25922 at 0.5 to 2 times MIC up to 1000 secs by DiSC3-5 dye-based fluorescence assay; format: subcellular; conditions: time sec <=1000
# Lipopolysaccharide (LPS) = assay: Displacement of BODIPY-TR-cadaverine from Escherichia coli O111:B4 LPS after 4 hrs by fluorescence assay
# Escherichia coli [27] = assay: Antibacterial activity against Escherichia coli ATCC 25922 infected in C57BL/6 mouse assessed as reduction in bacterial load in liver at 10 mg/kg, ip measured after 11 hrs (reference value: 7.12 log CFU/g); format: functional
# Staphylococcus aureus [28] = assay: Antibacterial activity against Staphylococcus aureus ATCC 29213 after 18 to 24 hrs in presence of 100% human serum by CLSI-based broth microdilution method; format: functional; conditions: time hrs 18-24
# Escherichia coli [29] = assay: Antibacterial activity against Escherichia coli ATCC 25922 measured after 18 to 24 hrs in presence of trypsin by CLSI-based broth microdilution method; format: functional, organism-based; conditions: time hrs 18-24
# Cell membrane [30] = assay: Induction of morpholoical changes in membrane of Staphylococcus aureus ATCC 29213 assessed as breakage in bacterial membrane at 1 times MIC after 1 hr by scanning electron microscopy; format: subcellular
# [31] = Toxicity in C57BL/6 mouse assessed as effect on total bilirubin level at 20 mg/kg, ip measured after 5 days; format: organism-based; conditions: in vivo, 120 h, time 5 day
# Cell membrane [32] = assay: Induction of structural changes in membrane of Escherichia coli ATCC 25922 assessed as cytoplasmic membrane separation at 1 times MIC after 1 hr by transmission electron microscopy; format: subcellular
# [33] = Toxicity in C57BL/6 mouse assessed as effect on blood urea nitrogen level at 10 mg/kg, ip measured after 5 days; format: organism-based; conditions: in vivo, 120 h, time 5 day
# [34] = Toxicity in C57BL/6 mouse assessed as effect on alanine aminotransferase level at 10 mg/kg, ip measured after 5 days; format: organism-based; conditions: in vivo, 120 h, time 5 day
# Cell membrane [35] = assay: Induction of membrane in permeabilization Staphylococcus aureus ATCC 29213 after 1 hr by FITC/PI fluorescence staining-based confocal microscopy analysis
structure (smiles),measurement,setting,value
CC[C@H](C)[C@H](N)C(=O)N[C@H](C(=O)N[C@H](C(=O)N[C@@H](CS)C(=O)N[C@@H](CCCNC(=N)N)C(=O)N[C@@H](CCCCN)C(=O)N1CCC[C@H]1C(=O)N[C@H](C(=O)N[C@H](C(=O)N[C@@H](CS)C(=O)N[C@@H](CCCNC(=N)N)C(=O)N[C@@H](CCCCN)C(=O)N1CCC[C@H]1C(=O)N[C@H](C(=O)N[C@H](C(=O)N[C@@H](CS)C(=O)N[C@@H](CCCNC(=N)N)C(=O)N[C@@H](CCCCN)C(=O)N1CCC[C@H]1C(=O)N[C@H](C(=O)N[C@H](C(=O)N[C@@H](CS)C(=O)N[C@@H](CCCNC(=N)N)C(=O)N[C@@H](CCCCN)C(=O)N1CCC[C@H]1C(=O)N[C@H](C(=O)N[C@H](C(=O)N[C@H](C(N)=O)[C@@H](C)CC)[C@@H](C)CC)[C@@H](C)CC)[C@@H](C)CC)[C@@H](C)CC)[C@@H](C)CC)[C@@H](C)CC)[C@@H](C)CC)[C@@H](C)CC)[C@@H](C)CC)[C@@H](C)CC (H-IIICRKPIICRKPIICRKPIICRKPIII-NH2),Activity,RAW264.7,Dose-dependent effect
same,Activity,Escherichia coli [1],5.58 log10CFU/g
same,Activity,[2],Non-Toxic
same,MIC,Escherichia coli [3],4 µM
same,Activity,Cell membrane [4],Dose-dependent effect
same,Activity,Escherichia coli [5],Active
same,MIC,Escherichia coli [6],2 µM
same,Activity,[7],Non-Toxic
same,Activity,Cell membrane [8],Active
same,Activity,Cell membrane [9],Active
same,MIC,Escherichia coli [10],2 µM
same,selectivity ratio,[11],57
same,MIC,[12],4 µM
same,Activity,Cell membrane [13],Active
same,Activity,Cell membrane [14],Dose-dependent effect
same,Stabilty,[15],Stable
same,MHC,Erythrocyte,> 128 µM
same,Activity,Escherichia coli [16],Active
same,MIC,Staphylococcus aureus [17],8 µM
same,selectivity ratio,[18],28.5
same,Activity,Cell membrane [19],Active
same,selectivity ratio,[20],28.5
same,Activity,Escherichia coli [21],Active
same,Activity,Escherichia coli [22],Active
same,Activity,Cell membrane [23],Active
same,Activity,Cell membrane [24],Active
same,Activity,[25],Non-Toxic
same,Activity,Cell membrane [26],Active
same,Activity,Lipopolysaccharide (LPS),Dose-dependent effect
same,Activity,Escherichia coli [27],5.08 log10CFU/g
same,MIC,Staphylococcus aureus [28],32 µM
same,Activity,Escherichia coli [29],Active
same,Activity,Cell membrane [30],Active
same,Activity,[31],Non-Toxic
same,Activity,Cell membrane [32],Active
same,Activity,[33],Non-Toxic
same,Activity,[34],Non-Toxic
same,Activity,Cell membrane [35],Active
